Article PMC9965520, “An Efficient Peptidomics Screening for Exogenous Substrates and Inhibitory Peptides of the Dipeptidase ACE from Milk Hydrolysate” (Pharmaceutics, 2023)
No end group written: not given here.

Target: T1, ACE (Oryctolagus cuniculus, UniProt P12822)
T1 sequence (P12822 34-1310): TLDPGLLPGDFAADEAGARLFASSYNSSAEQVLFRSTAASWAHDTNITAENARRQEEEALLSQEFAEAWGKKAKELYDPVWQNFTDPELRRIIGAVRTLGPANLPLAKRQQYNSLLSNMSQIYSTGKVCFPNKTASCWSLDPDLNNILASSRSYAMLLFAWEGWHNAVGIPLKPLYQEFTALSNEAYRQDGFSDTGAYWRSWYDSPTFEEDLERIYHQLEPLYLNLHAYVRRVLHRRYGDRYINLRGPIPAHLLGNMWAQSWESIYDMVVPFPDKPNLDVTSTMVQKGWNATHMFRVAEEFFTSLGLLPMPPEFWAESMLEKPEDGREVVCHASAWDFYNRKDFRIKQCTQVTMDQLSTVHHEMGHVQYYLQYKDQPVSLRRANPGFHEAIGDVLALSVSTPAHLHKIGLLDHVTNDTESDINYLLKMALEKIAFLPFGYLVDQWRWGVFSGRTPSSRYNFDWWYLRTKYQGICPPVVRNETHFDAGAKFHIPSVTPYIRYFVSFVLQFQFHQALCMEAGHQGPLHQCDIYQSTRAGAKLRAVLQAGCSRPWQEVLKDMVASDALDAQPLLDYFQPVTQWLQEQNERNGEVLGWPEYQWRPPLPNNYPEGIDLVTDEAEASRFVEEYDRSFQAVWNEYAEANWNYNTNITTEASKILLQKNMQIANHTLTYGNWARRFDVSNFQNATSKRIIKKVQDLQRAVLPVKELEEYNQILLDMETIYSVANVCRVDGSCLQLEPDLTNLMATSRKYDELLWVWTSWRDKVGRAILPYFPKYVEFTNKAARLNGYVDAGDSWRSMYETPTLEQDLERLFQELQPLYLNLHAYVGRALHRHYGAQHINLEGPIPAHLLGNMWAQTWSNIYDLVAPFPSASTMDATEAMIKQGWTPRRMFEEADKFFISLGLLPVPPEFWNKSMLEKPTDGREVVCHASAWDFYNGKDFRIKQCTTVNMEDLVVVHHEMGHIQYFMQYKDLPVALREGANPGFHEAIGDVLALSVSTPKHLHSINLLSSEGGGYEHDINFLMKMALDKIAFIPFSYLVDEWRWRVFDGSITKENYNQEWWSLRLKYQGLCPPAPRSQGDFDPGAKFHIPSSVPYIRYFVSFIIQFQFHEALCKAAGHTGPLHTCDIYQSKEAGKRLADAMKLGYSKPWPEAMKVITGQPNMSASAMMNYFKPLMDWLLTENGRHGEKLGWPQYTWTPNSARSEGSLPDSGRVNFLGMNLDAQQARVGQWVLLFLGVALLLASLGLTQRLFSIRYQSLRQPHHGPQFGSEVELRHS
Assay: ACE pre-incubation of milk hydrolysate peptide libraries, stable-isotope dimethyl labeling and LC-MS/MS (D/H ratio)
Format: in vitro ADME, rabbit
Set-up: ACE (EC 3.4.15.1, 1 unit) from rabbit lungs; purchased Sigma Chemical Co. (St. Louis, MO, USA); host or cells: rabbit lungs (tissue-derived enzyme)
Conditions: milk hydrolysate peptide library (<3 kDa); ACE-treated (0.05 mU/μL ACE, borate buffer, 37 °C, 3 h: 1.5 h static + 1.5 h 200 rpm; D-labeled) versus untreated (H-labeled) peptide; intensity ratio in LC-MS; <1 = hydrolysed by ACE
Protocol: The peptide libraries (200 μg) dissolved in borate buffer were equally divided into two parts, one was without any treatment (control group); the other part (experimental group) was incubated with 0.05 mU/μL ACE at 37℃ for 1.5 h statically, followed by gentle shaking at 200 rpm for another 1.5 h, and then the ACE reaction was quenched using 60 μL of 1N HCl. After lyophilization, both samples were redissolved in 100 μL of 0.1M sodium acetate and modified using stable-isotope dimethyl labeling according to the previous study with slight modifications. Briefly, the control group (without ACE incubation) had 4 μL of formaldehyde (37% solution in H2O) and 1 M NaBH3CN (10 μL) added to it; the experimental group had 20% formaldehyde-d2 (8 μL) and 1M NaBH3CN (10 μL) added to it. After 1h, 5 μL of ammonia (28% solution in H2O) were added individually to both groups to stop the reaction. The experimental group and the control group were combined and desalted using the PepClean™C18 spin column. The resulting peptide mixture was lyophilized and kept at −20 °C prior to LC-MS/MS analysis. Formaldehyde is known to the state of California to cause cancer; special caution was taken including the use of surgical gloves and a fume hood when formaldehyde was handled.
The combined mixture re-dissolved in 5% ACN containing 0.1% formic acid was separated using an Ultimate 3000 RSLC system (Dionex, Sunnyvale, CA, USA) coupled with a C18 column (Acclaim PepMap RSLC, 75 μm × 150 mm, Thermo Scientific, Waltham, Middlesex, MA, USA) and analyzed with a Thermo Q-ExactiveTM mass spectrometer (Thermo Scientific Inc., Waltham, Middlesex, MA, USA). The elution solution was composed of mobile phase A (0.1% formic acid in water) and B (0.1% formic acid in 95% acetonitrile). The elution gradient was arranged as follows: (i) isocratic elution using 1% B in the first 5.5 min for sample loading, (ii) linear gradient from 1% to 60% B in the next 39.5 min, (iii) linear gradient from 60% to 80% B in the following 10 min, and finally (iv) isocratic elution using 1% solution B for 10 min. The flow rate applied in the LC separation was maintained at 250 µL/min. The separated peptides were analyzed and quantified using Q-ExactiveTM mass spectrometry which was operated in the data-dependent mode and switched automatically between MS and HCD-MS2. A full MS scan was carried out in a 100 and 1500 m/z range, and the 14 ions of the highest intensities were selected for MS/MS scans. The RAW data were converted to the MGF file format followed by database-assisted sequencing with PEAKS DB using PEAKS Studio X (Bioinformatics Solutions Inc., Waterloo, ON, Canada). The parameters used for peptide identification were listed as follows: (1) Database: UniProt_SwissProt (Bos taurus); (2) Enzyme: pepsin, trypsin, α-chymotrypsin, or GI (the combination of these three proteases); (3) Type of enzyme: Unspecific; (4) Instrument: Orbitrap; (5) Parent mass error tolerance: 20 ppm; (6) Fragment mass error tolerance: 0.6 Da; (7) Variable modifications: Dimethyl (K), Dimethyl (N-term), Dimethyl:2H(4) (K), and Dimethyl:2H(4) (N-term) were used for identification and quantitative analysis. The sequence identified through the database was validated by manually matching with the MS/MS spectrum in the raw data. In addition to MS/MS analysis coupled with PEAKS studio, the ACE’s substrate candidates were further confirmed using the synthetic peptides with corresponding sequences by comparison with their LC retention times, m/z values, and MS/MS spectra. The relative abundances of hydrogen (H) and deuterium (D) labeled peptides were quantified based on the peak areas in their corresponding selective ion chromatograms (SIC). The D/H ratio of identified peptide with the same sequence was further examined by their relative signal intensities in MS spectrum. Theoretically, the D/H ratio of the isobaric pair should stay at 1 if the peptide will not react with ACE. […]

Substance	D/H Ratio
FPQYLQY [FPQYLQY]	0.12
DMPIQAF [DMPIQAF]	0.55
AVPYPQR [AVPYPQR]	0.44
TTMPLW [TTMPLW]	0.15
LRPVAAEIY [LRPVAAEIY]	0.65
HQPHQPLPPTVM [HQPHQPLPPTVM]	0.40
VVPPFLQPEVM [VVPPFLQPEVM]	0.80
NAVPITPTLNR [NAVPITPTLNR]	0.61
MFPPQSVL [MFPPQSVL]	0.21
IPPLTQT [IPPLTQT]	0.47
HQGLPQEVLNENLLR [HQGLPQEVLNENLLR]	0.76
INNQFLPYPYY [INNQFLPYPYY]	0.33
SIVHPSY [SIVHPSY]	0.18
SRYPSYGLN [SRYPSYGLN]	0.81

Now from value to substance:

D/H Ratio	Substance
0.59	DMPIQAFL [DMPIQAFL]
0.84	ALNEINQFY [ALNEINQFY]
0.83	VAPFPEVFG [VAPFPEVFG]
0.66	KVIPYVRY [KVIPYVRY]
0.15	ALPMHIR [ALPMHIR]
0.94	FALPQYLK [FALPQYLK]
0.47	QLDAYPSGAW [QLDAYPSGAW]
0.76	YPVEPFTESQSL [YPVEPFTESQSL]
0.65	SAYPGQITSN [SAYPGQITSN]
0.56	QVSLNSGY [QVSLNSGY]
0.15	HPHPHLSF [HPHPHLSF]

Target: T1, ACE
Assay: ACE hydrolysis of synthetic substrate candidates monitored by LC-MS at different incubation times
Format: in vitro ADME, rabbit
Set-up: ACE (EC 3.4.15.1, 1 unit) from rabbit lungs; purchased Sigma Chemical Co. (St. Louis, MO, USA); host or cells: rabbit lungs (tissue-derived enzyme)
Conditions: synthetic peptide incubated with ACE, 37 °C, 3 h, LC-MS/MS
Protocol: To confirm the reactivity of the identified peptide candidates towards ACE, the synthetic peptides were individually mixed with ACE and incubated at 37 °C for 3 h. The remaining peptide substrate and the resulting product were analyzed using LC-MS/MS. Meanwhile, the degradation rate of each peptide was monitored every 30 min using LC-MS. The percentage of the remaining substrate (RS%) at each time point was calculated as As/(As + Ap) 100%. In which, As is the selective ion chromatogram (SIC) peak area of remaining substrate and Ap is the peak area of the resulting product. The RS% was further compared with the D/H ratio obtained in Section 2.4.

Hydrolysis of synthetic peptide by ACE (result in words)	Substance
avoid ACE’s hydrolysis	NIPPLTQTPV [NV-10]
readily hydrolyzed by ACE	LVYPFPGPLHNSL [LVYPFPGPLHNSL]
retard the second cleavage	LVYPFPGPIHN [LVYPFPGPIHN]
avoid ACE’s hydrolysis	IASGEPTSTPTTE [IE-13]

Substance	Hydrolysis of synthetic peptide by ACE (result in words)
LYQGPIVL [LYQGPIVL]	survive from ACE’s hydrolysis
VRSPAQILQ [VRSPAQILQ]	survive from ACE’s hydrolysis

Target: T1, ACE
Assay: not given
Conditions: pH 8.3

Hydrolysis of Ang-I by ACE without exogenous substrates	Substance
hydrolyzed almost completely	DRVYIHPFHL [Ang-I, angiotensin I, reference compound]

System: ACE
Assay: not given
Conditions: 3 h of incubation with ACE; ref 21 (Forghani et al.); cited from earlier work
Protocol: To investigate the sequence conservation of the exogenous substrates, the identified substrates listed on Table 1 were analyzed using Weblogo (https://weblogo.berkeley.edu/). WebLogo is the software designed to analyze the frequency of residues that appeared at various positions in a sequence library. The font size of each letter (residue) represents the frequency appearance of each residue at a certain position. The order from the most frequent to the least frequent is arranged from the top to the bottom for each residue. The chemical properties of amino acid residues are classified by ...

Substance	peptide loss on incubation with ACE [%]
CRQNTLGHNTQTSIAQ	7
